Source: article PMC10374545, “A small molecule inhibitor of PTP1B and PTPN2 enhances T cell anti-tumor immunity” (Nature Communications, 2023)
Values joined by “and” are separate entries in the source; they are usually repeats but may differ in a detail not shown here. Identical values can stand only once.

Experiments:
[1] = test system: OT-I CD8+ T cells; experiment: Intracellular IFNγ, TNF and Granzyme B in activated OT-I T cells; assay type: cell-based, mouse; design: Grzmb, single replicates / IFN TNF, single replicates / IFN TNF, column mean / Grzmb, difference between medians: Actual / Grzmb, difference between medians: Hodges-Lehmann / IFN TNF, group mean (Mean 2): unit not given here; conditions: for IFN TNF, group mean (Mean 2): N 6
Description: (§1) Single-cell suspensions from spleens and lymph nodes were obtained as described previously. For the detection of intracellular cytokines and granzyme B, T cells were fixed and permeabilized with the BD Cytofix/Cytoperm kit according to the manufacturer’s instructions. Briefly, T cells were first surface stained with fluorophore-conjugated antibodies and then fixed followed by permeabilization on ice for 20 min. Fixed and permeabilized cells were stained for IFN-γ, TNF, and granzyme B for 45 min at room temperature. For the detection of intracellular FoxP3 the Foxp3/Transcription Factor Staining Buffer Set (eBioscience) was used according to the manufacturer’s instructions. Briefly, cells were fixed and permeabilized for 1 h on ice followed by intracellular staining at room temperature for 45 min. For the detection of serum cytokines, the BD CBA Mouse Inflammation Kit™ was used according to the manufacturers’ instructions.
For the detection of intracellular IFNγ, TNF and Granzyme B, single-cell suspensions were obtained from lymph nodes of wild type (OT-I;Ptpn2^fl/fl) or PTPN2-deficient (OT-I;Lck-Cre;Ptpn2^fl/fl) mice and stimulated with 1 nM N4 peptide for 16 h and rested in complete T cell media supplemented with IL-2 (5 ng/ml) and IL-7 (0.2 ng/ml) for 2 days. […] Cells were then stained with fluorophore-conjugated antibodies to cell surface CD8 and intracellular IFNγ, TNF, and Granzyme B and analyzed by flow cytometry.

[2] = test system: spleen; experiment: Spleen weight, splenocytes and splenic CD8+ EM T cell signaling in AT3-OVA tumor-bearing mice; assay type: in vivo, mouse
Description: as §1
Cells (1 × 10^6/10 µl) were stained with the specified antibodies on ice for 30 min in D-PBS supplemented with 2% FBS in the dark and analyzed using a Fortessa or Symphony A3 (BD Biosciences). Data was acquired using BD FACS DIVA Software v8.0.1 and analyzed using FlowJo10 (Tree Star Inc.) software. Lymphocytes were gated for eYFP^+ cells to discriminate between PTPN2 sufficient and PTPN2 negative cells after poly(I:C)-induced PTPN2-deletion in Mx1-Cre;Ptpn2^fl/fl mice. For cell quantification, known numbers of Flow-Count Fluorospheres (Beckman Coulter) were added to samples before analysis. Dead cells were excluded with propidium iodide (1 μg/ml; Sigma-Aldrich). Paraformaldehyde fixed dead cells were excluded with the LIVE/DEAD™ Fixable Near-IR Dead Cell Stain Kit (Thermo Fisher Scientific).
OVA mammary tumor cells were injected into the fourth inguinal mammary fat pads of 8 week- […]
n=8) or saline (n=8) on days (d) 6, 8, 10, 12, 14, 16, 18 and 21 after tumor cell implantation. […]
CD44hiCD62Llo CD8+ and CD4+ effector/memory (EM) T cells, CD4+CD25+FoxP3+ regulatory T cells (Tregs) and granulocytic and monocytic […]
CD8+ and CD4+ EM T cells were analysed by flow cytometry. In (a-d) representative results (means ± SEM) from at least two independent experiments are shown. In (d) significances were determined using a 1-way ANOVA Test.

[3] = test system: AT3 mammary tumors; experiment: AT3 tumor growth, Compound 182 with α-PD-1 checkpoint blockade; assay type: in vivo, mouse
Description: Male or female mice were injected subcutaneously with 5 × 10^5 MC38 tumor cells resuspended in 100 μl D-PBS into the flank. Alternatively, female mice were injected orthotopically with 5 × 10^5 AT3 or AT3-OVA or PTPN2-deleted AT3 or AT3-OVA tumor cells resuspended in 20 μl D-PBS into the fourth mammary fat pad. Tumor sizes were measured in two dimensions (mm^2) using electronic callipers two to three times per week as soon as tumors were palpable (20–25 mm^2).
In addition, mice received four intraperitoneal injections of α-PD-1 (200 μg in 200 μl D-PBS; clone RMP1-14), or rat IgG2a isotype control (100 μg in 200 μl D-PBS, Bio X Cell) twice per week.

[4] = N4 1nM, 1 μM, Fig. 2B raw data, listed as CMP-182
[5] = splenic CD8+ EM T cells, 10 mg/kg i.v., Fig. 3E raw data, listed as CMP-182, 10 mg/kg

Structure (SMILES): CC(C)(O)CCOc1ccc2cc(O)c(N3CC(=O)NS3(=O)=O)c(F)c2c1 [Compound 182, 5-(1-Fluoro-3-hydroxy-7-(3-hydroxy-3-methylbutoxy)naphthalen-2-yl)−1,2,5-thiadiazolidin-3-one 1,1-dioxide]
- Grzmb, difference between medians: Actual ([1]; CMP-182 vs. DMSO, N4, Fig. 2B): 672.5
- Grzmb, difference between medians: Hodges-Lehmann ([1]; CMP-182 vs. DMSO, N4, Fig. 2B): 741.5
- Grzmb, single replicates [1, 4]: 3755 and 3056 and 3282 and 3899 and 3113 and 2884
- IFN TNF, single replicates [1, 4]: 32.6 and 31.1 and 31 and 36.2 and 30.7 and 32.8
- IFN TNF, group mean (Mean 2) ([1]; N4 1nM, Fig. 2B): 32.4
- Grzmb, median of column B ([1]; N4, n=6, Fig. 2B): 3198, n=6
- expression of Granzyme B, IFNγ and TNF ([1]; OT-I CD8+ T cells): increased expression
- IFN TNF, single replicates ([1]; Vehicle (no N4), 1 μM, Fig. 2B raw data, listed as CMP-182): 0.038 and 0.03 and 0.037 and 0.066 and 0.023 (2×)
- IFN TNF, group mean (Mean 2) ([1]; Vehicle (no N4), Fig. 2B): 0.03617
- IFN TNF, column mean ([1]; mean over Vehicle and N4 1nM rows, two-way ANOVA, Fig. 2B): 16.22
- basal p-SFK and p-STAT-5 in splenic CD8+ effector/memory T cells ([2]; 10 mg/kg i.v.): enhanced
- spleen weights and splenic T cell and myeloid numbers ([2]; AT3-OVA tumor-bearing mice, 10 mg/kg i.v.): unaltered
- B cells Spleen (median) ([2]; Figure 3C, column B, n=8): 1202070, n=8
- Nk cells Spleen (median) ([2]; Figure 3C, column B, n=8): 1062533, n=8
- pSFK CD8 EM (median) ([2]; Figure 3E, column B, n=8): 356.5, n=8
- pSTAT5 CD8 EM (median) ([2]; Figure 3E, column B, n=8): 960.5, n=8
- p-SFK MFIs, single mice [2, 5]: 362 and 359 and 441 and 347 and 414 and 282 and 298 and 354
- p-STAT-5 MFIs, single mice [2, 5]: 1043 and 825 and 973 and 931 and 1046 and 926 and 948 and 1137
- response of AT3 tumors to PD-1 checkpoint blockade ([3]; 10 mg/kg i.v. every 2 days with α-PD-1 200 μg i.p. twice per week): rendered otherwise largely resistant AT3 tumors sensitive
- AT3 tumor growth, combination therapy ([3]; Compound 182 10 mg/kg i.v. + α-PD-1 200 μg i.p.): marked repression
- Tumour weights ([3]; Figure 9C, AT-3, individual mice, listed as CMP-182, in mg (unit assumed)): 195 and 335 and 220 and 301 and 250 and 332
